Data as given in patent US20220153732A1, “PROTEIN SECRETION INHIBITORS” (KEZAR LIFE SCIENCES, priority 2019, published 2022).

Tests used:
Assay type in all cases: cell-based
[1] = system: TNFα-FL/Gaussia Luciferase; test: Dox Induced TNFα-FL-Gluc Assay; conditions: 24 hr doxycycline induction, 293FRT/TO cells, Gaussia luciferase signal; read-out: 24 hr Dox Inducible TNFaFLGluc 293FRT/TO: Mean IC50
Summary of the method: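 A stable T-REx cell line carrying doxycycline-inducible TNFα-FL/Gaussia luciferase was plated the day before assay. Compound dilutions in DMSO/media containing doxycycline were then added and incubated at 37° C, 5% CO2.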

[2] = system: IL-2-FL/Gaussia Luciferase; test: Dox Induced IL2-FL-Gluc Assay; conditions: 24 hr doxycycline induction, 293FRT/TO cells, Gaussia luciferase signal; read-out: 24 hr Dox Inducible IL2FLGIuc 293FRT/TO: Mean IC50
Summary of the method: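 Stable T-REx cell line expressing doxycycline-inducible IL-2-FL/Gaussia luciferase cDNA, plated the day before assay. Compound dilutions in DMSO/media containing doxycycline added and incubated at 37° C., 5% CO2. Unspecified stereochemistry means data refer to a stereoisomer mixture.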

[3] = system: PD1-ss+10aa/Gaussia Luciferase; test: Dox-Induced PD1-ss-Gluc Assay; conditions: 24 hr doxycycline induction, 293FRT/TO cells, Gaussia luciferase signal; read-out: 24 hr Dox Inducible PD1ssGluc 293FRT/TO: Mean IC50
Summary of the method: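 Stable cell line carrying PD1-ss+10aa/Gaussia luciferase cDNA under T-REx (doxycycline-inducible) control, plated the day before assay. Compound dilutions in DMSO/media containing doxycycline added and incubated at 37° C, 5% CO2. Undefined stereocentres: data refer to stereoisomer mixtures.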

[4] = system: human multiple myeloma cell line U266B1; test: U266 Cell Viability Assay; conditions: U-266, 48 hr, U266B1 cells, Celltiter-Glo, read-out: 48 hr U266 Viability Celltiter-Glo: Mean EC50
Summary of the method: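 U266B1 myeloma cells treated with compound dilutions in DMSO/media for 48 h at 37 °C, 5% CO2. Viability read by CellTiter-Glo luminescence. Stereochemically undefined structures were tested as stereoisomer mixtures.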

[5] = system: HER3-ss+4aa/Gaussia Luciferase; test: Dox-Induced Her3-ss-Gluc Assay; conditions: 24 hr doxycycline induction, 293FRT/TO cells, Gaussia luciferase signal; read-out: 24 hr Dox Inducible Her3(ss + 4)Gluc 293FRT/TO: Mean IC50
Summary of the method: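 Stable T-REx cell line carrying a doxycycline-regulated HER3-ss+4aa/Gaussia luciferase insert, plated the day before assay. Compound dilutions in DMSO/media with doxycycline added, then incubated at 37° C., 5% CO2. Stereoisomer mixtures tested where stereochemistry is not drawn.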

[6] = system: human multiple myeloma cell line NCI-H929; test: H929 Cell Viability Assay; conditions: 48 hr, NCI-H929 cells, Celltiter-Glo, read-out: 48 hr H929 Viability Celltiter-Glo: Mean EC50
Procedure: Plates were incubated at 37° C., 5% CO2 for 48 hours. After 48 hours, Celltiter-Glo® (Promega) was added to each well and luciferase signal was quantified using Tecan Infinite M1000 Pro for cell viability determination.
For chemical structures that include one or more stereoisomers, but are illustrated without indicating stereochemistry, the assay data refers to a mixture of stereoisomers.

COc1ccccc1C#Cc1csc(NC(=O)c2cccn2Cc2ccncc2)n1 [Compound A141]
IC50 [1]: 1820 nM
IC50 [2]: 1580 nM
IC50 [3]: 277 nM
EC50 [4]: 13100 nM
IC50 [5]: 651 nM
EC50 [6]: 7720 nM

COc1cccc(C#Cc2csc(NC(=O)c3cccn3Cc3ccncc3)n2)c1 [Compound A142]
IC50 [1]: 5410 nM
IC50 [2]: 1050 nM
IC50 [3]: 241 nM
EC50 [4]: > 25000 nM
IC50 [5]: 565 nM
EC50 [6]: > 25000 nM

COc1ccc(C#Cc2csc(NC(=O)c3cccn3Cc3ccncc3)n2)cc1 [Compound A143]
IC50 [1]: 1580 nM
IC50 [2]: 617 nM
IC50 [3]: 89 nM
EC50 [4]: > 19800 nM
IC50 [5]: 423 nM
EC50 [6]: 15200 nM

O=C(Nc1nc(C#Cc2ccccc2Cl)cs1)c1cccn1Cc1ccncc1 [Compound A144]
IC50 [1]: 905 nM
IC50 [2]: 748 nM
IC50 [3]: 151 nM
EC50 [4]: 10400 nM
IC50 [5]: 395 nM
EC50 [6]: 6860 nM

O=C(Nc1nc(/C=C/C2CCCCC2)cs1)c1cccn1Cc1ccncc1 [Compound A152, N-(4-(2-cyclohexylvinyl)thiazol-2-yl)-1-(pyridin-4-ylmethyl)-1H-pyrrole-2-carboxamide]
IC50 [1]: 1580 nM
IC50 [2]: 854 nM
IC50 [3]: 85 nM
EC50 [4]: > 25000 nM
IC50 [5]: 280 nM
EC50 [6]: 11000 nM

O=C(Nc1nc(/C=C/C2CCOCC2)cs1)c1cccn1Cc1ccncc1 [Compound A153, 1-(pyridin-4-ylmethyl)-N-(4-(2-(tetrahydro-2H-pyran-4-yl)vinyl)thiazol-2-yl)-1H-pyrrole-2-carboxamide]
IC50 [1]: > 25000 nM
IC50 [2]: 4070 nM
IC50 [3]: 902 nM
EC50 [4]: > 25000 nM
IC50 [5]: 1550 nM
EC50 [6]: > 25000 nM

O=C(Nc1nc(/C=C/C2CCCOC2)cs1)c1cccn1Cc1ccncc1 (stereo not drawn) [Compound A154, 1-(pyridin-4-ylmethyl)-N-(4-(2-(tetrahydro-2H-pyran-3-yl)vinyl)thiazol-2-yl)-1H-pyrrole-2-carboxamide]
IC50 [1]: 11500 nM
IC50 [2]: 5420 nM
IC50 [3]: 694 nM
EC50 [4]: > 25000 nM
IC50 [5]: 2600 nM
EC50 [6]: > 25000 nM

O=C(Nc1nc(/C=C/C2CCCCO2)cs1)c1cccn1Cc1ccncc1 (stereo not drawn) [Compound A155, 1-(pyridin-4-ylmethyl)-N-(4-(2-(tetrahydro-2H-pyran-2-yl)vinyl)thiazol-2-yl)-1H-pyrrole-2-carboxamide]
IC50 [1]: 15900 nM
IC50 [2]: 4370 nM
IC50 [3]: 232 nM
EC50 [4]: > 25000 nM
IC50 [5]: 2140 nM
EC50 [6]: > 25000 nM

COc1ccccc1/C=C/c1csc(NC(=O)c2cccn2Cc2ccncc2)n1 [Compound A158, N-(4-(2-methoxystyryl)thiazol-2-yl)-1-(pyridin-4-ylmethyl)-1H-pyrrole-2-carboxamide]
IC50 [1]: 2420 nM
IC50 [2]: 1470 nM
IC50 [3]: 293 nM
EC50 [4]: > 25000 nM
IC50 [5]: 993 nM
EC50 [6]: 15700 nM

COc1cccc(/C=C/c2csc(NC(=O)c3cccn3Cc3ccncc3)n2)c1 [Compound A159, N-(4-(3-methoxystyryl)thiazol-2-yl)-1-(pyridin-4-ylmethyl)-1H-pyrrole-2-carboxamide]
IC50 [1]: 9010 nM
IC50 [2]: 2650 nM
IC50 [3]: 247 nM
EC50 [4]: 16200 nM
IC50 [5]: 948 nM
EC50 [6]: 5710 nM

COc1ccc(/C=C/c2csc(NC(=O)c3cccn3Cc3ccncc3)n2)cc1 [Compound A160, N-(4-(4-methoxystyryl)thiazol-2-yl)-1-(pyridin-4-ylmethyl)-1H-pyrrole-2-carboxamide]
IC50 [1]: 1740 nM
IC50 [2]: 374 nM
IC50 [3]: 51 nM
EC50 [4]: > 25000 nM
IC50 [5]: 259 nM
EC50 [6]: 9100 nM

O=C(Nc1nc(/C=C/c2ccccc2Cl)cs1)c1cccn1Cc1ccncc1 [Compound A161, N-(4-(2-chlorostyryl)thiazol-2-yl)-1-(pyridin-4-ylmethyl)-1H-pyrrole-2-carboxamide]
IC50 [1]: 2870 nM
IC50 [2]: 1070 nM
IC50 [3]: 134 nM
EC50 [4]: 10900 nM
IC50 [5]: 523 nM
EC50 [6]: 5280 nM

O=C(Nc1nc(/C=C/c2ccc(Cl)cc2)cs1)c1cccn1Cc1ccncc1 [Compound A163, N-(4-(4-chlorostyryl)thiazol-2-yl)-1-(pyridin-4-ylmethyl)-1H-pyrrole-2-carboxamide]
IC50 [1]: 2470 nM
IC50 [2]: 652 nM
IC50 [3]: 59 nM
EC50 [4]: 24500 nM
IC50 [5]: 305 nM
EC50 [6]: 7610 nM

O=C(Nc1nc(/C=C/c2ccccn2)cs1)c1cccn1Cc1ccncc1 [Compound A164]
IC50 [1]: 23700 nM
IC50 [2]: 6770 nM
IC50 [3]: 98 nM
EC50 [4]: > 25000 nM
IC50 [5]: 8400 nM
EC50 [6]: 17700 nM

O=C(Nc1nc(/C=C/c2cccnc2)cs1)c1cccn1Cc1ccncc1 [Compound A165, N-(4-(2-(pyridin-3-yl)vinyl)thiazol-2-yl)-1-(pyridin-4-ylmethyl)-1H-pyrrole-2-carboxamide]
IC50 [1]: > 25000 nM
IC50 [2]: 10800 nM
IC50 [3]: 1650 nM
EC50 [4]: > 25000 nM
IC50 [5]: 9830 nM
EC50 [6]: 11100 nM

O=C(Nc1nc(/C=C/c2ccncc2)cs1)c1cccn1Cc1ccncc1 [Compound A166, N-(4-(2-(pyridin-4-yl)vinyl)thiazol-2-yl)-1-(pyridin-4-ylmethyl)-1H-pyrrole-2-carboxamide]
IC50 [1]: > 25000 nM
IC50 [2]: > 25000 nM
IC50 [3]: 13500 nM
EC50 [4]: > 25000 nM
IC50 [5]: > 25000 nM
EC50 [6]: > 25000 nM

COc1cccc(CCc2csc(NC(=O)c3cccn3Cc3ccncc3)n2)c1 [Compound A176]
IC50 [1]: 2870 nM
IC50 [2]: 1200 nM
IC50 [3]: 272 nM
EC50 [4]: > 25000 nM
IC50 [5]: 643 nM
EC50 [6]: 20800 nM

O=C(Nc1nc(CCc2ccccc2Cl)cs1)c1cccn1Cc1ccncc1 [Compound A178]
IC50 [1]: 929 nM
IC50 [2]: 500 nM
IC50 [3]: 152 nM
EC50 [4]: 19900 nM
IC50 [5]: 367 nM
EC50 [6]: 9270 nM

O=C(Nc1nc(CCc2cccc(Cl)c2)cs1)c1cccn1Cc1ccncc1 [Compound A179]
IC50 [1]: 3580 nM
IC50 [2]: 1170 nM
IC50 [3]: 211 nM
EC50 [4]: 10600 nM
IC50 [5]: 541 nM
EC50 [6]: 5750 nM

O=C(Nc1nc(CCc2ccc(Cl)cc2)cs1)c1cccn1Cc1ccncc1 [Compound A180]
IC50 [1]: 736 nM
IC50 [2]: 281 nM
IC50 [3]: 57 nM
EC50 [4]: 6460 nM
IC50 [5]: 156 nM
EC50 [6]: 7180 nM

O=C(Nc1nc(Cc2ccccc2)cs1)c1cccn1CCCc1ccncc1 [Compound A184, N-(4-benzylthiazol-2-yl)-1-(3-(pyridin-4-yl)propyl)-1H-pyrrole-2-carboxamide]
IC50 [1]: 2410 nM
IC50 [2]: 1080 nM
IC50 [3]: 448 nM
EC50 [4]: 13300 nM
IC50 [5]: 807 nM
EC50 [6]: 11800 nM

O=C(Nc1nc(Cc2ccccc2)cs1)c1cccn1CCCc1cccnc1 [Compound A187, N-(4-benzylthiazol-2-yl)-1-(3-(pyridin-3-yl)propyl)-1H-pyrrole-2-carboxamide]
IC50 [1]: > 25000 nM
IC50 [2]: 11600 nM
IC50 [3]: 10400 nM
EC50 [4]: > 25000 nM
IC50 [5]: > 21900 nM
EC50 [6]: 18300 nM

CC(C)OC(C)(C)c1csc(NC(=O)c2cccn2CCCc2cccnc2)n1 [Compound A190, N-(4-(2-isopropoxypropan-2-yl)thiazol-2-yl)-1-(3-(pyridin-3-yl)propyl)-1H-pyrrole-2-carboxamide]
IC50 [1]: > 25000 nM
IC50 [2]: 3440 nM
IC50 [3]: 5230 nM
EC50 [4]: > 25000 nM
IC50 [5]: > 18100 nM
EC50 [6]: > 25000 nM

O=C(Nc1nc([C@H]2C[C@@H]2c2ccccc2)cs1)c1cccn1Cc1ccncc1 [Compound A194, N-(4-((1S,2S)-2-phenylcyclopropyl)thiazol-2-yl)-1-(pyridin-4-ylmethyl)-1H-pyrrole-2-carboxamide]
IC50 [1]: 2300 nM
IC50 [2]: 1140 nM
IC50 [3]: 280 nM
EC50 [4]: 16000 nM
IC50 [5]: 600 nM
EC50 [6]: 6670 nM

O=C(Nc1nc([C@H]2C[C@H]2c2ccccc2)cs1)c1cccn1Cc1ccncc1 [Compound A200]
IC50 [1]: 1610 nM
IC50 [2]: 251 nM
IC50 [3]: 140 nM
EC50 [4]: > 25000 nM
IC50 [5]: 332 nM
EC50 [6]: 15700 nM
